Data: ChEMBL document CHEMBL3588857, “Peroxisome proliferator-activated receptor gamma (PPARγ) has multiple binding points that accommodate ligands in various conformations: Structurally similar PPARγ partial agonists bind to PPARγ LBD in different conformations” (Bioorg Med Chem Lett, 2015)
Activity calls are given as the source filed them. No cut-off for these calls is given here.

Legend:
[1] = molecular target: T1, Peroxisome proliferator-activated receptor gamma (Homo sapiens) (UniProt P37231); assay: Antagonist activity at PPARgamma (unknown origin) assessed as inhibition of 10 uM pioglitazone-induced receptor transactivation at 0.1 to 10 uM
T1 sequence (whole entry): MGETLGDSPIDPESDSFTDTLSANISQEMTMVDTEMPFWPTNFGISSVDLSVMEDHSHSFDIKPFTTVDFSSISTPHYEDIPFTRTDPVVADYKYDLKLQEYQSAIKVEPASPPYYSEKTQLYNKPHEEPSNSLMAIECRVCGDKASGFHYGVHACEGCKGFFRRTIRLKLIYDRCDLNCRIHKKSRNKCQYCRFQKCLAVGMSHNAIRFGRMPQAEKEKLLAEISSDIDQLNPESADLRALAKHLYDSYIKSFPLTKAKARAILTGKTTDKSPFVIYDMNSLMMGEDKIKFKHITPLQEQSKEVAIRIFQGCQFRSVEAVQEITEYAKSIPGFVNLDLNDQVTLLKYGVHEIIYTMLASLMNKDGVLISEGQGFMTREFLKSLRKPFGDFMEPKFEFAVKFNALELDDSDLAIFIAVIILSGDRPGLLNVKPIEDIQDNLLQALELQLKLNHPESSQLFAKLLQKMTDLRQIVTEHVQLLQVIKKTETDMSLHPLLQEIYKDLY

[2] = molecular target: T1, Peroxisome proliferator-activated receptor gamma (Homo sapiens); assay: Partial agonist activity at PPARgamma (unknown origin) assessed as induction of receptor transactivation at 0.1 to 10 uM relative to 10 uM pioglitazone

CCCOc1ccc(C(=O)NS(=O)(=O)Cc2ccccc2)cc1CNC(=O)c1ccc(-c2ncccn2)cc1
inhibition [1]: Dose-dependent effect | Activity [2]: Active
